Values of other authors in US7329659B2, “Substituted-1-phthalazinamines as vr-1 antagonists” (Merck Sharp & Dohme Limited, priority 2003, dated 2008).

Target: VR1 (Rattus norvegicus, UniProt O35433)
Details: Wahl et al., Mol. Pharmacol., 59:9, 2001

VR1, sequence (O35433 whole entry): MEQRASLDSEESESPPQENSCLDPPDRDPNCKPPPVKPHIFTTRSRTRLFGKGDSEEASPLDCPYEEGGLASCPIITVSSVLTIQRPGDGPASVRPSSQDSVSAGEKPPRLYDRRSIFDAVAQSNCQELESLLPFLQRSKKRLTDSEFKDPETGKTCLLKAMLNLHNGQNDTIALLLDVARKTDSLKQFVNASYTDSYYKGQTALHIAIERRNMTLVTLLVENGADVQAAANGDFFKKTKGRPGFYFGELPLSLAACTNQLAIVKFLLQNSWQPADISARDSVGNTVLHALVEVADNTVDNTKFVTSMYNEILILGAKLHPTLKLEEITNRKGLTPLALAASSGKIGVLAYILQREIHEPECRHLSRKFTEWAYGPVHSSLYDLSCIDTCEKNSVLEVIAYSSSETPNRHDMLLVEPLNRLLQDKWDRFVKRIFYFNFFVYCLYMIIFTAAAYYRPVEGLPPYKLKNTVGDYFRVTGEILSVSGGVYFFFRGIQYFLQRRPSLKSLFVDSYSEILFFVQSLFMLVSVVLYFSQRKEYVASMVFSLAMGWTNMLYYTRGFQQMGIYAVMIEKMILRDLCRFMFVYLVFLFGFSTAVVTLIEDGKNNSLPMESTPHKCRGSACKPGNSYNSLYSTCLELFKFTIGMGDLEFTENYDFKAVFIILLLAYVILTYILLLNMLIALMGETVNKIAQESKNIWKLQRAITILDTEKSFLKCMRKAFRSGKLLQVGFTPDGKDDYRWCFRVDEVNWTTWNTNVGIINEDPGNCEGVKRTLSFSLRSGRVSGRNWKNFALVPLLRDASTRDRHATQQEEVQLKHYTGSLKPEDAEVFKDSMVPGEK

In the case of `C=C(C)[C@]12C[C@@H](C)[C@@]34O[C@](Cc5ccccc5)(O[C@@H]1[C@@H]3C=C(COC(=O)Cc1cc(I)c(O)c(OC)c1)C[C@]1(O)C(=O)C(C)=C[C@@H]41)O2` [Iodo-resiniferatoxin], the “VR1 antagonist potency (in words)” value is given as “nanomolar antagonist of VR1”.
